From patent US20150105252A1, “SUBSTITUTED PYRAZOLES AS HERBICIDES” (E I DU PONT DE NEMOURS AND COMPANY, priority 2013, published 2015) come the findings set out here.

Experiment [1] deals with nutsedge, purple. Put plainly: Test E preemergence. The experiment is classed as in vivo, Cyperus rotundus. The settings on record: 21 days, scale 0 to 100. An excerpt:
(§1) Seeds of plant species selected from bermudagrass (Cynodon dactylon), Surinam grass (Brachiaria decumbens), crabgrass, large (large crabgrass, Digitaria sanguinalis), crabgrass, naked (naked crabgrass, Digitaria nuda), foxtail, green (green foxtail, Setaria viridis), johnsongrass (Sorghum halepense), kochia (Kochia scoparia), morningglory (pitted morningglory, Ipomoea lacunosa), nutsedge, purple (purple nutsedge, Cyperus rotundus), ragweed (common ragweed, Ambrosia elation), mustard, black (black mustard, Brassica nigra), guineagrass (Panicum maximum), dallisgrass (Paspalum dilatatum), barnyardgrass (Echinochloa crus-galli), sandbur (southern sandbur, Cenchrus echinatus), sowthistle (common sowthistle, Sonchus oleraceous), ryegrass, Italian (Italian ryegrass, Lolium multiflorum), signalgrass (broadleaf signalgrass, Brachiaria platyphylla), dayflower, VA (Virginia (VA) dayflower, Commelina virginica), bluegrass (annual bluegrass, Poa annua), quackgrass (Elytrigia repens), mallow (common mallow, Malva sylvestris), buckwheat, wild (wild buckwheat, Polygonum convolvulus), leafy spurge (Euphorbia esula), common chickweed (Stellaria media), wild poinsettia (Euphorbia heterophylla), pigweed, palmer (palmer pigweed, Amaranthus palmeri), and pigweed (redroot pigweed, Amaranthus retroflexus) were planted into a blend of loam soil and sand and treated preemergence with test chemicals formulated in a non-phytotoxic solvent mixture which included a surfactant.
(§2) Treated plants and controls were maintained in a greenhouse for 21 days, after which time all species were compared to controls and visually evaluated. Plant response ratings, summarized in Table E, are based on a scale of 0 to 100 where 0 is no effect and 100 is complete control. A dash (-) response means no test result.

Experiment [2] relates to quackgrass. Nature of the experiment: Test E preemergence. The experiment is classed as in vivo, Elytrigia repens. As to conditions: 21 days, scale 0 to 100.
From the text: as §1, §2

Experiment [3] concerns Italian ryegrass. Nature of the experiment: Test F postemergence. The settings on record: scale 0 to 100. The experiment is classed as in vivo, Lolium multiflorum. The source says:
(§3) Seeds of plant species selected from corn (Zea mays), soybean (Glycine max), velvetleaf (Abutilon theophrasti), lambsquarters (Chenopodium album), wild poinsettia (Euphorbia heterophylla), pigweed, palmer (palmer pigweed, Amaranthus palmeri), common waterhemp (Amaranthus rudis), surinam grass (Brachiaria decumbens), large crabgrass (Digitaria sanguinalis), crabgrass, Brazil (Brazilian crabgrass, Digitaria horizontalis), fall panicum (Panicum dichotomiflorum), giant foxtail (Setaria faberii), green foxtail (Setaria viridis), goosegrass (Eleusine indica), johnsongrass (Sorghum halepense), common ragweed (Ambrosia elation), barnyardgrass (Echinochloa crus-galli), southern sandbur (Cenchrus echinatus), arrowleaf sida (Sida rhombifolia), Italian ryegrass (Lolium multiflorum), dayflower, VA (Virginia (VA) dayflower, Commelina virginica), field bindweed (Convolvulus arvensis), cocklebur (common cocklebur, Xanthium strumarium), morningglory (Ipomoea coccinea), nightshade (eastern black nightshade, Solanum ptycanthum), kochia (Kochia scoparia), yellow nutsedge (Cyperus esculentus), and hairy beggarticks (Bidens pilosa), were planted into a silt loam soil and treated preemergence with test chemicals formulated in a non-phytotoxic solvent mixture which included a surfactant.
(§4) At the same time, plants from these crop and weed species and also horseweed (Canada horseweed, Conyza canadensis), smartweed (ladysthumb smartweed, Polygonum persicaria), waterhemp_RES1, (ALS & Triazine resistant common waterhemp, Amaranthus rudis), and waterhemp_RES2, (ALS & HPPD resistant common waterhemp, Amaranthus rudis) were treated with postemergence applications of test chemicals formulated in the same manner. Plants ranged in height from 2 to 18 cm for postemergence treatments (1- to 4-leaf stage). Treated plants and controls were maintained in a greenhouse for 14 to 21 days, after which time all species were compared to controls and visually evaluated. Plant response ratings, summarized in Table F, are based on a scale of 0 to 100 where 0 is no effect and 100 is complete control. A dash (-) response means no test result.

Experiment [4] has as its system pigweed, palmer. Put plainly: Test F postemergence. The settings on record: scale 0 to 100. The experiment is classed as in vivo, Amaranthus palmeri.
From the text: as §3, §4

The subject of experiment [5] is wild poinsettia. Nature of the experiment: Test F postemergence. The experiment is classed as in vivo, Euphorbia heterophylla. The settings on record: scale 0 to 100.
From the text: as §3, §4

The test system of experiment [6] is field bindweed. Nature of the experiment: Test F postemergence. The experiment is classed as in vivo, Convolvulus arvensis. As to conditions: scale 0 to 100. In outline:
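Formulated in surfactant-containing non-phytotoxic solvent; pre: applied to seeded silt loam; post: applied to plants 2–18 cm (1–4 leaves); greenhouse 14–21 d; visual 0–100 rating vs controls.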

The test system of experiment [7] is johnsongrass. Nature of the experiment: Test E preemergence. The experiment is classed as in vivo, Sorghum halepense. The settings on record: 21 days, scale 0 to 100.
From the text: as §1, §2

Experiment [8] has as its system hairy beggarticks. Nature of the experiment: Test F postemergence. The experiment is classed as in vivo, Bidens pilosa. As to conditions: scale 0 to 100.
From the text: as §3, §4

Experiment [9] deals with Italian ryegrass. Put plainly: Test A preemergence. The experiment is classed as in vivo, Lolium multiflorum. In outline: (§5)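 Greenhouse test in loam soil/sand blend; compounds formulated in non-phytotoxic solvent with surfactant, applied as preemergence directed soil spray or postemergence to plants 2–10 cm tall at one- to two-leaf stage. Injury rated visually versus untreated controls after approximately 10 days on a 0 (no effect) to 100 (complete control) scale.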

Experiment [10] relates to common ragweed. Nature of the experiment: Test A postemergence. The experiment is classed as in vivo, Ambrosia elation. The method in brief:
as §5

The mark [11] stands for this setting: 125 g ai/ha, visual injury, 0 to 100 scale, approx. 10 days.
[12] abbreviates: 500 g ai/ha, visual injury after approx. 10 days, 0 to 100 scale (0 no effect, 100 complete control).
Where [13] appears, read: Postemergence, 500 g ai/ha, 0 to 100 scale (0 no effect, 100 complete control).
The mark [14] stands for this setting: postemergence, 125 g ai/ha, about 10 days, visual rating on 0 to 100 scale (0 no effect, 100 complete control).

The structures appear in SMILES notation.

For `CCOc1cc(C(=O)NCC(F)(F)F)nn1Cc1ccnc(C(F)(F)F)c1` [Compound 104], the “Plant response rating, Nutsedge, Purple” value in experiment [1] (16 g ai/ha) was 35; in [1] (31 g ai/ha), 80; in [1] (62 g ai/ha), 90; in [1] (125 g ai/ha), 98; in [1] (250 g ai/ha) it was 100. Also, the “Plant response rating, Quackgrass” value in experiment [2] (16 g ai/ha) was determined as 75; in experiment [2] (31 g ai/ha), 95; in experiment [2] (62 g ai/ha), 95; in [2] (125 g ai/ha), 98; in experiment [2] (250 g ai/ha), 100. For the same molecule, the “Plant response rating, Italian Ryegrass” value is 0 in experiment [3] (Postemergence, 31 g ai/ha); 35 in [3] (Postemergence, 125 g ai/ha); 60 in [3] (Postemergence, 250 g ai/ha); 15 in experiment [3] (postemergence, 62 g ai/ha); 85 in experiment [3] (postemergence, 500 g ai/ha). Also, the “Plant response rating, Pigweed, Palmer” value was 60 in experiment [4] (Postemergence, 31 g ai/ha); 70 in experiment [4] (Postemergence, 125 g ai/ha); 75 in [4] (Postemergence, 250 g ai/ha); 80 in experiment [4] (postemergence, 62 g ai/ha); 95 in experiment [4] (postemergence, 500 g ai/ha). Further, the “Plant response rating, Wild Poinsettia” value in [5] (Postemergence, 31 g ai/ha) is given as 45; in experiment [5] (Postemergence, 125 g ai/ha), 95; in experiment [5] (Postemergence, 250 g ai/ha) it was 90; in [5] (postemergence, 62 g ai/ha), 60; in experiment [5] (postemergence, 500 g ai/ha), 100. Further, the “Plant response rating, Field Bindweed” value in experiment [6] (Postemergence, 31 g ai/ha) came out at 70; in experiment [6] (Postemergence, 125 g ai/ha), 90; in [6] (Postemergence, 250 g ai/ha) it was 90; in [6] (postemergence, 62 g ai/ha), 70; in experiment [6] (postemergence, 500 g ai/ha), 95. For the same molecule, the “Plant response rating, Johnsongrass” value is 95 in [7] (16 g ai/ha); 100 in experiment [7] (31 g ai/ha); 100 in experiment [7] (62 g ai/ha); 100 in experiment [7] (125 g ai/ha); 100 in [7] (250 g ai/ha). In addition, the “Plant response rating, Hairy Beggarticks” value is 50 in experiment [8] (Postemergence, 31 g ai/ha); 60 in experiment [8] (Postemergence, 125 g ai/ha); 85 in experiment [8] (Postemergence, 250 g ai/ha); 50 in experiment [8] (postemergence, 62 g ai/ha); 90 in [8] (postemergence, 500 g ai/ha).
As to `CCCc1cc(C(=O)NCC(F)(F)F)nn1Cc1ccnc(C(F)(F)F)c1` [Compound 105], the “Plant response rating, Nutsedge, Purple” value in experiment [1] (16 g ai/ha) was 40; in [1] (31 g ai/ha), 70; in experiment [1] (62 g ai/ha), 85; in experiment [1] (125 g ai/ha), 85; in experiment [1] (250 g ai/ha) it was 95. In addition, the “Plant response rating, Quackgrass” value in [2] (16 g ai/ha) stood at 65; in experiment [2] (31 g ai/ha), 90; in experiment [2] (62 g ai/ha) it was 98; in [2] (125 g ai/ha), 100; in experiment [2] (250 g ai/ha), 100. The “Plant response rating, Italian Ryegrass” value amounted to 0 in [3] (Postemergence, 31 g ai/ha); 30 in experiment [3] (Postemergence, 125 g ai/ha); 65 in [3] (Postemergence, 250 g ai/ha); 15 in [3] (postemergence, 62 g ai/ha); 90 in [3] (postemergence, 500 g ai/ha). Also, the “Plant response rating, Pigweed, Palmer” value in [4] (Postemergence, 31 g ai/ha) amounted to 30; in experiment [4] (Postemergence, 125 g ai/ha), 60; in [4] (Postemergence, 250 g ai/ha), 75; in experiment [4] (postemergence, 62 g ai/ha) it was 25; in experiment [4] (postemergence, 500 g ai/ha), 80. For the same molecule, the “Plant response rating, Wild Poinsettia” value was 40 in [5] (Postemergence, 31 g ai/ha); 70 in experiment [5] (Postemergence, 125 g ai/ha); 100 in [5] (Postemergence, 250 g ai/ha); 50 in experiment [5] (postemergence, 62 g ai/ha); 100 in experiment [5] (postemergence, 500 g ai/ha). Also, the “Plant response rating, Field Bindweed” value came out at 70 in [6] (Postemergence, 31 g ai/ha); 70 in [6] (Postemergence, 125 g ai/ha); 80 in experiment [6] (Postemergence, 250 g ai/ha); 75 in [6] (postemergence, 62 g ai/ha); 90 in experiment [6] (postemergence, 500 g ai/ha). Besides, the “Plant response rating, Johnsongrass” value in experiment [7] (16 g ai/ha) worked out at 35; in experiment [7] (31 g ai/ha), 80; in experiment [7] (62 g ai/ha) it was 98; in [7] (125 g ai/ha) it was 98; in [7] (250 g ai/ha) it was 100. Further, the “Plant response rating, Hairy Beggarticks” value in experiment [8] (Postemergence, 31 g ai/ha) is 40; in experiment [8] (Postemergence, 125 g ai/ha), 50; in experiment [8] (Postemergence, 250 g ai/ha) it was 70; in experiment [8] (postemergence, 62 g ai/ha), 50; in experiment [8] (postemergence, 500 g ai/ha), 85.
Regarding `CCONC(=O)c1cc(CC)n(Cc2cc(C(F)(F)F)no2)n1` [Compound 125], the “Italian Ryegrass plant response rating” value in [9] (setting [11]) came to 20; in experiment [9] (setting [12]), 100. Moreover, the “Common Ragweed plant response rating” value is given as 60 in experiment [10] (setting [13]) and 20 in experiment [10] (setting [14]).
Turning to `CCOc1cc(C(=O)NC2CC2)nn1Cc1ccnc(OC(F)F)c1` [Compound 133], the entries for the “Italian Ryegrass plant response rating” value in experiment [9] (setting [11]) and in [9] (setting [12]) were 40 and 90, respectively. Besides, the figures for the “Common Ragweed plant response rating” value in [10] (setting [13]) and in experiment [10] (setting [14]) were 100 and 60, respectively.
In the case of `CCc1cc(C(=O)NCC(F)(F)F)nn1Cc1cc(OC(F)F)nn1C` [Compound 206], the “Italian Ryegrass plant response rating (0 to 100 scale)” value in experiment [9] (125 g ai/ha, visual injury approx. 10 days after treatment) turned out to be 0. For the same molecule, in [9] (setting [12]), the “Italian Ryegrass plant response rating” value was determined as 20. Moreover, the “Common Ragweed plant response rating” value in experiment [10] (setting [13]) is given as 30; in [10] (setting [14]) it was 0.
